Measurements: PubChem BioAssay (NCI)
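Following 48 hours of exposure in 96-well plates, responses at five concentrations were used to interpolate endpoints linearly. GI50 = concentration required for 50% inhibition of growth. TGI denotes the concentration required for complete inhibition of growth.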

Tested on: ACHN renal
Experiment: NCI tumour cell line growth inhibition, 48 h

Row | Structure (SMILES) | TGI | GI50
1 | O=C(O)Cc1cc(O)c(CC(=O)O)cc1O | > 100 µM | 
2 | N#Cc1c(Cl)c2cc([N+](=O)[O-])ccc2n2c1nc1ccccc12 | 13.6 µM | 
3 | C=CC1(C)CCC2=C(CCC3C(C)(C(=O)OC)CCCC23C)C1=O (stereo not drawn) | 31.9 µM | 
4 | O=S1(=O)N(CCNc2nccc(-c3c(-c4cccc(O)c4)nc4sccn34)n2)CCN1Cc1ccccc1 | 48.2 µM | 3.83 µM
5 | O=C(N/N=C\c1cccc(O)c1)c1ccncc1 | > 100 µM | 
6 | Cc1cc(O)c(C(C)(C)C)cc1Sc1cc(C(C)(C)C)c(O)cc1C | 10 µM | 2.89 µM
7 | O=C1CCCCC2N(C(c3ccccc3)c3ccccc3)CC[C@@]12c1ccccc1 (mixture of isomers) | > 10 µM | 
8 | O=C1NN(C2=NNC3(C(=O)N2)c2ccccc2-c2ccccc23)C(c2ccccc2)=N/C1=C/c1ccc(O)cc1 | > 150 µg/mL | 41.7 µg/mL
9 | CCOC(=O)C(O)(NC(=O)c1ccc(F)cc1)C(F)(F)F (stereo not drawn) | > 100 µM | 
10 | Cc1nc2ccccc2n1C(=O)c1c(F)c(F)c(F)c(F)c1F | 60.7 µM | 
11 | Clc1ccccc1/C=C/c1cscn1 | > 100 µM | 

Tested on: HOP-92 NSCLC
Experiment: NCI tumour cell line growth inhibition, 48 h

Row | Structure (SMILES) | TGI [µM] | GI50 [µM]
12 | O=C(O)Cc1cc(O)c(CC(=O)O)cc1O | > 100 | 
13 | O=S1(=O)N(CCNc2nccc(-c3c(-c4cccc(O)c4)nc4sccn34)n2)CCN1Cc1ccccc1 | > 50 | 12.9
14 | C=C(C)C(=O)OC1CCC2(C)C(CCC3C2CCC2(C)C(c4ccc(=O)oc4)CC4OC432)C1 (stereo not drawn) | 9.96 | 
15 | O=C(N/N=C\c1cccc(O)c1)c1ccncc1 | > 100 | 
16 | Cc1cc(O)c(C(C)(C)C)cc1Sc1cc(C(C)(C)C)c(O)cc1C | 6.17 | 2.49
17 | O=C1CCCCC2N(C(c3ccccc3)c3ccccc3)CC[C@@]12c1ccccc1 (mixture of isomers) | > 10 | 
18 | CCOC(=O)C(O)(NC(=O)c1ccc(F)cc1)C(F)(F)F (stereo not drawn) | > 100 | 
19 | Cc1nc2ccccc2n1C(=O)c1c(F)c(F)c(F)c(F)c1F | 27.9 | 

Tested on: IGROV1 ovarian
Experiment: NCI tumour cell line growth inhibition, 48 h

Row | Structure (SMILES) | TGI | GI50
20 | O=C(O)Cc1cc(O)c(CC(=O)O)cc1O | > 100 µM | 
21 | C=CC1(C)CCC2=C(CCC3C(C)(C(=O)OC)CCCC23C)C1=O (stereo not drawn) | 37.1 µM | 
22 | O=S1(=O)N(CCNc2nccc(-c3c(-c4cccc(O)c4)nc4sccn34)n2)CCN1Cc1ccccc1 | 43.6 µM | 6.65 µM
23 | C=C(C)C(=O)OC1CCC2(C)C(CCC3C2CCC2(C)C(c4ccc(=O)oc4)CC4OC432)C1 (stereo not drawn) | 20.5 µM | 
24 | O=C(N/N=C\c1cccc(O)c1)c1ccncc1 | > 100 µM | 
25 | Cc1cc(O)c(C(C)(C)C)cc1Sc1cc(C(C)(C)C)c(O)cc1C | 12.5 µM | 2.98 µM
26 | O=C1CCCCC2N(C(c3ccccc3)c3ccccc3)CC[C@@]12c1ccccc1 (mixture of isomers) | > 10 µM | 
27 | O=C1NN(C2=NNC3(C(=O)N2)c2ccccc2-c2ccccc23)C(c2ccccc2)=N/C1=C/c1ccc(O)cc1 | 15 µg/mL | 15 µg/mL
28 | CCOC(=O)C(O)(NC(=O)c1ccc(F)cc1)C(F)(F)F (stereo not drawn) | > 100 µM | 
29 | Cc1nc2ccccc2n1C(=O)c1c(F)c(F)c(F)c(F)c1F | 44.8 µM | 

Tested on: M14 melanoma
Experiment: NCI tumour cell line growth inhibition, 48 h

Row | Structure (SMILES) | TGI | GI50
30 | O=C(O)Cc1cc(O)c(CC(=O)O)cc1O | > 100 µM | 
31 | N#Cc1c(Cl)c2cc([N+](=O)[O-])ccc2n2c1nc1ccccc12 | 4.41 µM | 
32 | C=CC1(C)CCC2=C(CCC3C(C)(C(=O)OC)CCCC23C)C1=O (stereo not drawn) | 38.7 µM | 
33 | O=S1(=O)N(CCNc2nccc(-c3c(-c4cccc(O)c4)nc4sccn34)n2)CCN1Cc1ccccc1 | 27.7 µM | 461 nM
34 | O=C(N/N=C\c1cccc(O)c1)c1ccncc1 | > 100 µM | 
35 | O=C1CCCCC2N(C(c3ccccc3)c3ccccc3)CC[C@@]12c1ccccc1 (mixture of isomers) | > 10 µM | 
36 | O=C1NN(C2=NNC3(C(=O)N2)c2ccccc2-c2ccccc23)C(c2ccccc2)=N/C1=C/c1ccc(O)cc1 | > 150 µg/mL | 57.6 µg/mL
37 | CCOC(=O)C(O)(NC(=O)c1ccc(F)cc1)C(F)(F)F (stereo not drawn) | > 100 µM | 
38 | Cc1nc2ccccc2n1C(=O)c1c(F)c(F)c(F)c(F)c1F | 25.9 µM | 
39 | Clc1ccccc1/C=C/c1cscn1 | > 100 µM | 

Tested on: NCI/ADR-RES ovarian
Experiment: NCI tumour cell line growth inhibition, 48 h

Row | Structure (SMILES) | TGI | GI50
40 | O=C(O)Cc1cc(O)c(CC(=O)O)cc1O | > 100 µM | 
41 | N#Cc1c(Cl)c2cc([N+](=O)[O-])ccc2n2c1nc1ccccc12 | 28 µM | 
42 | O=S1(=O)N(CCNc2nccc(-c3c(-c4cccc(O)c4)nc4sccn34)n2)CCN1Cc1ccccc1 | > 50 µM | 14100 nM
43 | C=C(C)C(=O)OC1CCC2(C)C(CCC3C2CCC2(C)C(c4ccc(=O)oc4)CC4OC432)C1 (stereo not drawn) | 26 µM | 
44 | COc1cc(/C=C2\CCCC3=C2NC(C)=NC3c2cc(OC)c(OC)c(OC)c2)cc(OC)c1OC (stereo not drawn) | > 100 µM | 505 nM
45 | O=C(N/N=C\c1cccc(O)c1)c1ccncc1 | > 100 µM | 
46 | Cc1cc(O)c(C(C)(C)C)cc1Sc1cc(C(C)(C)C)c(O)cc1C | 7.58 µM | 2780 nM
47 | O=C1NN(C2=NNC3(C(=O)N2)c2ccccc2-c2ccccc23)C(c2ccccc2)=N/C1=C/c1ccc(O)cc1 | > 150 µg/mL | 50.9 µg/mL
48 | CCOC(=O)C(O)(NC(=O)c1ccc(F)cc1)C(F)(F)F (stereo not drawn) | > 100 µM | 
49 | Cc1nc2ccccc2n1C(=O)c1c(F)c(F)c(F)c(F)c1F | 42.4 µM | 

Tested on: RPMI-8226 leukemia
Experiment: NCI tumour cell line growth inhibition, 48 h

Row | Structure (SMILES) | TGI [µM] | GI50 [µM]
50 | N#Cc1c(Cl)c2cc([N+](=O)[O-])ccc2n2c1nc1ccccc12 | > 22.5 | 
51 | C=CC1(C)CCC2=C(CCC3C(C)(C(=O)OC)CCCC23C)C1=O (stereo not drawn) | 55.9 | 
52 | O=S1(=O)N(CCNc2nccc(-c3c(-c4cccc(O)c4)nc4sccn34)n2)CCN1Cc1ccccc1 | 14.3 | 4.41
53 | C=C(C)C(=O)OC1CCC2(C)C(CCC3C2CCC2(C)C(c4ccc(=O)oc4)CC4OC432)C1 (stereo not drawn) | 20.1 | 
